Experimental data: patent US6689806B1, “Indolinone compounds as kinase inhibitors” (Sugen, Inc., priority 1999, dated 2004)
Like-named read-outs stand apart in the source and are kept apart here.

Assays:
[1] = target: PDGFR (Homo sapiens, UniProt P09619); experiment: Biochemical PDGFR assay (ELISA); set-up: expressed in transfected cells; host or cells: NIH 3T3
Protocol: This assay measures the in vitro kinase activity of PDGFR using ELISA.
6. PDGFR-β expressing NlH 3T3 cell lysate.
1. Coat Corning 96 well ELISA plates with 0.5 μg 28D4C10 in 100 μL PBS per well, store overnight at 4° C.
5. Dilute lysate in HNTG (10 μg lysate/100 μL HNTG)
(§1) 6. Add 100 μL of diluted lysate to each well. Shake at room temperature for 60 min.
8. Add 80 μL working kinase buffer mix to ELISA plate containing captured PDGFR.
9. Dilute test compound 1:10 in TBS in 96-well polypropylene plates (i.e., 10 μL compound+90 μL TBS).
10. Add 10 μL diluted test compound to ELISA plate.
11. Incubate for 30 minutes while shaking at room temperature.
12. Add 10 μL ATP directly to all wells except negative control well (final well volume should be approximately 100 μL with 20 μM ATP in each well.) Incubate 30 minutes while shaking.
13. After 30 minutes, stop reaction by adding 10 μL of 200 mM EDTA (pH 8.0) to each well.
(§2) 15. Add 100 μL anti-phosphotyrosine (1:3000 dilution in TBST) per well. Incubate 30-45 min. at room temperature, with shaking.
(§3) 17. Add 100 μL Biosource Goat anti-rabbit IgG peroxidase conjugate (1:2000 dilution in TBST) to each well. Incubate 30 min. at room temperature, with shaking.
(§4) 19. Add 100 μL of ABTS/H2O2 solution to each well.
22. Read assay on Dynatech MR7000 ELISA reader: test filter: 410 nM, reference filter: 630 nM.

[2] = target: EGFR (Homo sapiens, UniProt P00533); experiment: Biochemical EGFR assay (ELISA); set-up: A431 cell lysate; endogenous in cells; host or cells: A431
Chain of EGFR (P00533 25-1210): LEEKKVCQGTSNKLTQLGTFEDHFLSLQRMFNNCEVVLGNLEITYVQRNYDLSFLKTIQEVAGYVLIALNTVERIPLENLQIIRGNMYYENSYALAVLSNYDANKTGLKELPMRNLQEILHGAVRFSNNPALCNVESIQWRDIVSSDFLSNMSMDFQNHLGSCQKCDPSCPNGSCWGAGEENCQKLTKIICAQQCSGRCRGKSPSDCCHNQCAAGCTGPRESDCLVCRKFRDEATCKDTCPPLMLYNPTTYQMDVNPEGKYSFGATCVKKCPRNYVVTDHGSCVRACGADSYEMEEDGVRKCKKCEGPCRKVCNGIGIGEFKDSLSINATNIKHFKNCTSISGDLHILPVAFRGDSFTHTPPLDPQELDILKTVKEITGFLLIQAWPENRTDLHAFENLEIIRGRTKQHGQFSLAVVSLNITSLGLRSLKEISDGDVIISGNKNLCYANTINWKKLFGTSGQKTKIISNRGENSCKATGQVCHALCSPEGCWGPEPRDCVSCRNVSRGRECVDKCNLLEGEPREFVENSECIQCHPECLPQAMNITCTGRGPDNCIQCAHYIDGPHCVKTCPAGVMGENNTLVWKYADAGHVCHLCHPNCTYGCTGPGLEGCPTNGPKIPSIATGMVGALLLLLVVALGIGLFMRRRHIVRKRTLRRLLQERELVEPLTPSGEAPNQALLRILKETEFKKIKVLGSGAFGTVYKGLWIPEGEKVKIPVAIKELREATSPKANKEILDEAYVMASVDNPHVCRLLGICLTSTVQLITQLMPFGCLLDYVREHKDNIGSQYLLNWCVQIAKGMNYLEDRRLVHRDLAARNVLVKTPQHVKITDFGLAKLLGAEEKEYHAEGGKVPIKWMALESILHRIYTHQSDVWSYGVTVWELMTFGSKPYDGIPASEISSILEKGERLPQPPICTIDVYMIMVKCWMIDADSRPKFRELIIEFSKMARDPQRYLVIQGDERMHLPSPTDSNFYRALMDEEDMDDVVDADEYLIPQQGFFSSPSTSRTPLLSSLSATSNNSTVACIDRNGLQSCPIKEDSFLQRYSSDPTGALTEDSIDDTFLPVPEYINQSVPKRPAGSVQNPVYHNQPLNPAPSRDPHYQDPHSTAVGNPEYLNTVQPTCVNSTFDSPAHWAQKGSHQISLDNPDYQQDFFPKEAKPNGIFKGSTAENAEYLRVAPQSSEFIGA
Protocol: This assay measures the in vitro kinase activity of EGFR using ELISA.
1. Coat Coming 96 well ELISA plates with 0.5 μg SUMOl in 100 μL PBS per well, store overnight at 4° C.
5. Dilute lysate in PBS (7 μg lysate/100 μL PBS).
as §1
8. Add 120 μL TBS to ELISA plate containing captured EGFR.
9. Dilute test compound 1:10 in TBS in 96-well polypropylene plates (ie. 10 μL compound+90 μL TBS).
10. Add 13.5 μL diluted test compound to ELISA plate.
13. After 5 minutes, stop reaction by adding 16.5 μL of 200 mM EDTA (pH 8.0) to each well, shaking continuously. After the EDTA has been added, shake for 1 mm.
as §2, §3, §4
22. Read assay on Dynatech MR7000 ELISA reader. Test Filter: 410 nM Reference Filter: 630 Nm.

[3] = target: T1, Her2 (Homo sapiens, UniProt P04626); experiment: HER-2 ELISA: EGF receptor-HER2 chimeric receptor assay in whole cells (HER2 kinase); format: cell-based; conditions: NIH3T3 cells with EGFR/HER2 chimeric receptor, phosphotyrosine ELISA
T1 construct: fused on or other part: P00533 (Epidermal growth factor receptor)
T1 sequence (P04626 676-1255 limits assumed): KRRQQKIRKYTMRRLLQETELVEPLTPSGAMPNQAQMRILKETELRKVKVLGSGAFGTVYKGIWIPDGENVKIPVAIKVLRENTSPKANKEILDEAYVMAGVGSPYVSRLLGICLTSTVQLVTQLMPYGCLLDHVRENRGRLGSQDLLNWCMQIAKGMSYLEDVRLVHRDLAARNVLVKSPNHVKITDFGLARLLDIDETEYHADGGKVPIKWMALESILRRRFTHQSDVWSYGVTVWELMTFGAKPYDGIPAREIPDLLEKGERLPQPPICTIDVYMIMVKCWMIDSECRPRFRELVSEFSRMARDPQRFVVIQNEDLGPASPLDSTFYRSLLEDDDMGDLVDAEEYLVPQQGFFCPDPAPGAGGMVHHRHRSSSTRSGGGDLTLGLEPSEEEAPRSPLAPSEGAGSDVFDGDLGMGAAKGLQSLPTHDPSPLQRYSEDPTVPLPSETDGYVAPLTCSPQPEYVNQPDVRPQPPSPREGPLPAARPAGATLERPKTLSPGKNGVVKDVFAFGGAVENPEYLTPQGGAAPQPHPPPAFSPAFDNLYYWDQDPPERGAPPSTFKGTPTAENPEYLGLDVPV
Protocol: Assay 1: EGF Receptor-HER2 Chimeric Receptor Assay In Whole Cells.
HER2 kinase activity in whole EGFR-NIH3T3 cells was measured as described below:
1. An NIH3T3 cell line overexpressing a chimeric receptor containing the EGFR extracellular domain and intracellular HER2 kinase domain can be used for this assay.
3. Resuspend cells in seeding medium (DMEM, 0.5% bovine serum), and count the cells using trypan blue. Viability above 90% is acceptable. Seed cells in DMEM medium (0.5% bovine serum) at a density of 10,000 cells per well, 100 μL per well, in a 96 well microtiter plate. Incubate seeded cells in 5% CO2 at 37° C. for about 40 hours.
1. Check seeded cells for contamination using an inverted microscope. Dilute drug stock (10 mg/mL in DMSO) 1:10 in DMEM medium, then transfer 5 μL to a TBST well for a final drug dilution of 1:200 and a final DMSO concentration of 1%. Control wells receive DMSO alone. Incubate in 5% CO2 at 37° C. for two hours.
2. Prepare EGF ligand: dilute stock EGF in DMEM so that upon transfer of 10 μL dilute EGF (1:12 dilution), 100 nM final concentration is attained.
4. After 120 minutes incubation with drug, add prepared […] ligand to cells, 10 μL per well, to a final concentration of 100 nM. Control wells receive DMEM alone. Incubate, shaking, at room temperature, for 5 minutes.
5. Remove drug, EGF, and DMEM. Wash cells twice with PBS. Transfer HNTG* to cells, 100 μL per well. Place on ice for 5 minutes. Meanwhile, remove blocking buffer from other ELISA plate and wash with TBST as described above.
6. With a pipette tip securely fitted to a micropipettor, scrape cells from plate and homogenize cell material by repeatedly aspirating and dispensing the HNTG* lysis buffer. Transfer lysate to a coated, blocked, and washed ELISA plate. Incubate shaking at room temperature for one hour.
7. Remove lysate and wash 4 times with TBST. Transfer freshly diluted anti-Ptyr antibody to ELISA plate at 100 μL per well. Incubate shaking at room temperature for 30 minutes in the presence of the anti-Ptyr antiserum (1:3000 dilution in TBST).
8. Remove the anti-Ptyr antibody and wash 4 times with TBST. Transfer the freshly diluted TAGO anti-rabbit IgG antibody to the ELISA plate at 100 μL per well. Incubate shaking at room temperature for 30 minutes (anti-rabbit IgG antibody: 1:3000 dilution in TBST).
9. Remove TAGO detection antibody and wash 4 times with TBST. Transfer freshly prepared ABTS/H2O2 solution to ELISA plate, 100 μL per well. Incubate shaking at room temperature for 20 minutes. (ABTS/H2O2 solution: 1.0 μL 30% H2O2 in 10 mL ABTS stock).
10. Stop reaction by adding 50 μL 5N H2SO4 (optional), and determine O.D. at 410 nm.
11. The maximal phosphotyrosine signal is determined by subtracting the value of the negative controls from the positive controls. The percent inhibition of phosphotyrosine content for extract-containing wells is then calculated, after subtraction of the negative controls.

[4] = Table 5, in vitro kinase activity, read-out: PDGFr biochem IC50
[5] = Table 5, in vitro kinase activity, read-out: EGFr biochem IC50
[6] = Table 4, in vitro kinase activity, read-out: bio PDGFr IC50
[7] = Table 4, in vitro kinase activity, read-out: bio EGFr IC50
[8] = Table 7, in vitro kinase activity, read-out: EGFr biochem IC50

Chain of PDGFR (P09619 33-1106): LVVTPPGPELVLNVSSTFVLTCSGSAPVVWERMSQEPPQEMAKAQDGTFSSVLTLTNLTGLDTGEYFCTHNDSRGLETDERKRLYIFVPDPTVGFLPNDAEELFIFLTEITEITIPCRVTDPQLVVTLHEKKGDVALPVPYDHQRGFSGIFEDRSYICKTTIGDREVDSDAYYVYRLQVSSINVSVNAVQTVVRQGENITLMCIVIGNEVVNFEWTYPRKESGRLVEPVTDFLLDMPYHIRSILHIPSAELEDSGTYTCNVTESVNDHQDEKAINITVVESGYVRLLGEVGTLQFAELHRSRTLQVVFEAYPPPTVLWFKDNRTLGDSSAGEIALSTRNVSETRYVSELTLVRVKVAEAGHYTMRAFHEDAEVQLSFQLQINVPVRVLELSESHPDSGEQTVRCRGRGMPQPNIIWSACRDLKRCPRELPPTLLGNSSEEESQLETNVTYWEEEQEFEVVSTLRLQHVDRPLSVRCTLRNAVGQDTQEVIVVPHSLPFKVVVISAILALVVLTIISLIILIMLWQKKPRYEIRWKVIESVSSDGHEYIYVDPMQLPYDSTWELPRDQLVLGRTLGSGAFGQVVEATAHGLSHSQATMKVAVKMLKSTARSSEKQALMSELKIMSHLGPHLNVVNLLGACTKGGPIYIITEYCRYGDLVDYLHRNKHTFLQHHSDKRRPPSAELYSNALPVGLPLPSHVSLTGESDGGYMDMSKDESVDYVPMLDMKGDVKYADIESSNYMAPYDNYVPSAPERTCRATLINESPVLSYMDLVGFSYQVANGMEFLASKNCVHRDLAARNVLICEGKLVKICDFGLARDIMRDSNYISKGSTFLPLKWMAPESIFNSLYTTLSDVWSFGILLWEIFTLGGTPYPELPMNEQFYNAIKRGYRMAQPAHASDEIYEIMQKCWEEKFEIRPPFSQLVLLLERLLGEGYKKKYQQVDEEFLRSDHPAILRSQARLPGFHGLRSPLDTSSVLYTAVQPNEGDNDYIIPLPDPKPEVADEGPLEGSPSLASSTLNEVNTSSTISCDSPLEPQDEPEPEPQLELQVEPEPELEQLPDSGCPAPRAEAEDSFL

SMILES	IC50 [1, 4] [µM]	IC50 [2, 5] [µM]	IC50 ([3]; Table 5) [µM]	IC50 [1, 6] [µM]	IC50 [2, 7] [µM]	IC50 ([3]; Table 4) [µM]	further results
CC(C)(C)c1cc(CC2C(=O)Nc3ccc(Cl)cc32)cc(Br)c1O (racemic) [AAI-28, 3-(3-Bromo-5-tert-butyl-4-hydroxybenzyl)-5-chloro-1,3-dihydroindol-2-one]	> 100	> 100	48	–	–	–	–
COc1ccc2c(c1)NC(=O)C2Cc1ccc(OC)c(-c2ccsc2)c1 (stereo not drawn) [AAI-1, 6-Methoxy-3-(4-methoxy-3-thiophen-3-ylbenzyl)-1,3-dihydroindol-2-one]	> 100	> 100	> 100	–	–	–	–
O=C(Nc1ccc2c(c1)NC(=O)C2Cc1cc(Cl)cc(Cl)c1O)C1CCCC1 (stereo not drawn) [AAI-2, Cyclopentanecarboxylic Acid [3-(3,5-Dichloro-2-hydroxybenzyl)-2-oxo-2,3-dihydro-1H-indol-6-yl]-amide]	> 100	> 100	50.5	–	–	–	–
O=C(Nc1ccc2c(c1)NC(=O)C2Cc1cc(Cl)ccc1O)C1CCCC1 (stereo not drawn) [AAI-3, Cyclopentanecarboxylic Acid [3-(5-Chloro-2-hydroxybenzyl)-2-oxo-2,3-dihydro-1H-indol-6-yl]-amide]	> 100	> 100	> 100	–	–	–	–
COc1ccc(-c2cc(CC3C(=O)Nc4ccccc43)c(O)cc2OC)cc1 (stereo not drawn) [AAI-4, 3-(4-Hydroxy-6,4′-dimethoxybiphenyl-3-ylmethyl)-1,3-dihydroindol-2-one]	> 100	> 100	> 100	–	–	–	–
O=C1Nc2cccc(CCO)c2C1Cc1ccc(Br)cc1 (stereo not drawn) [AAI-14, 3-(4-Bromobenzyl)-4-(2-hydroxyethyl)-1,3-dihydroindol-2-one]	> 100	> 100	> 100	–	–	–	–
CC(C)c1cc(CC2C(=O)Nc3ccc(Cl)cc32)cc(C(C)C)c1OCCN1CCOCC1 (stereo not drawn) [AAI-15, 5-Chloro-3-[3,5-diisopropyl-4-(2-morpholin-4-ylethoxy)-benzyl]-1,3-dihydroindol-2-one]	> 100	> 100	> 100	–	–	–	–
Cc1[nH]c(CC2C(=O)Nc3ccc(Br)cc32)c(C)c1CCCN(C)C (stereo not drawn) [AAI-19, 5-Bromo-3-[4-(3-dimethylaminopropyl)-3,5-dimethyl-1H-pyrrol-2-ylmethyl]-1,3-dihydroindol-2-one]	0.25	> 100	> 100	–	–	–	–
O=C1Nc2cc(-c3ccccc3)ccc2C1Cc1cc(Br)ccc1O (stereo not drawn) [AAI-26, 3-(5-Bromo-2-hydroxybenzyl)-6-phenyl-1,3-dihydroindol-2-one]	> 100	> 100	67.6	–	–	–	–
COc1ccc(C=C2C(=O)Nc3cc(-c4cccnc4)ccc32)cc1-c1cccs1 [AHI-1, 3-(4-Methoxy-3-thiophen-2-yl-benzylidene)-6-pyridin-3-yl-1,3-dihydroindol-2-one]	–	–	–	> 100	> 100	> 100	–
O=C1Nc2cc(-c3cccnc3)ccc2C1=Cc1ccccc1O [AHI-2, 3-(2-Hydroxybenzylidene)-6-pyridin-3-yl-1,3-dihydroindol-2-one]	–	–	–	49.9	> 100	31.5	–
COc1ccc(C=C2C(=O)Nc3cc(-c4cccs4)ccc32)cc1-c1cccs1 [AHI-3, 3-(4-Methoxy-3-thiophen-2-yl-benzylidene)-6-thiophen-2-yl-1,3-dihydroindol-2-one]	–	–	–	> 100	> 100	> 100	–
O=C1Nc2cc(-c3cccs3)ccc2C1=Cc1ccccc1O [AHI-4, 3-(2-Hydroxybenzylidene)-6-thiophen-2-yl-1,3-dihydroindol-2-one]	–	–	–	> 100	> 100	> 100	–
COc1ccc(C=C2C(=O)Nc3cc(-c4ccsc4)ccc32)cc1-c1cccs1 [AHI-5, 3-(4-Methoxy-3-thiophen-2-yl-benzylidene)-6-thiophen-3-yl-1,3-dihydroindol-2-one]	–	–	–	> 100	> 100	> 100	–
O=C1Nc2cc(-c3ccsc3)ccc2C1=Cc1ccccc1O [AHI-6, 3-(2-Hydroxybenzylidene)-6-thiophen-3-yl-1,3-dihydroindol-2-one]	–	–	–	76.6	> 100	57.3	–
Cc1[nH]c(C=C2C(=O)Nc3cc(-c4cccnc4)ccc32)c(C)c1CCCN(C)C [AHI-7, 3-[4-(3-Dimethylaminopropyl)-3,5-dimethyl-1H-pyrrol-2-ylmethylene]-6-pyridin-3-yl-1,3-dihydroindol-2-one]	–	–	–	0.02	12.1	16.8	–
Cc1[nH]c(C=C2C(=O)Nc3cc(-c4cccs4)ccc32)c(C)c1CCCN(C)C [AHI-8, 3-[4-(3-Dimethylaminopropyl)-3,5-dimethyl-1H-pyrrol-2-ylmethylene]-6-thiophen-2-yl-1,3-dihydroindol-2-one]	–	–	–	0.52	> 100	71	–
COCCc1cccc2c1CC(=O)N2 [IN-018, 4-(2-Methoxy-ethyl)-1,3-dihydro-indol-2-one]	–	–	–	–	–	–	IC50 [2, 8]: > 100 µM; IC50 ([3]; Table 7): > 100 µM
CCOCCc1cccc2c1CC(=O)N2 [IN-019, 4-(2-Ethoxy-ethyl)-1,3-dihydro-indol-2-one]	–	–	–	–	–	–	IC50 [2, 8]: > 100 µM; IC50 ([3]; Table 7): > 100 µM
O=C1Cc2c(CCOc3cncc(Cl)c3)cccc2N1 [IN-021, 4-[2-(5-Chloro-pyridin-3-yloxy)-ethyl]1,3-dihydro-indol-2-one]	–	–	–	–	–	–	IC50 [2, 8]: > 100 µM; IC50 ([3]; Table 7): > 100 µM
CC(C)NC(=O)OCCc1cccc2c1CC(=O)N2 [IN-025, Isopropyl-carbamic acid 2-(2-oxo-2,3-dihydro-1H-indol-4-yl)-ethyl ester]	–	–	–	–	–	–	IC50 ([1]; Table 7, in vitro kinase activity, read-out: PDGFr biochem IC50): 70.8 µM; IC50 [2, 8]: > 100 µM; IC50 ([3]; Table 7): 3.9 µM
